Results reported in paper PMC6511944 (Journal of Medicinal Chemistry, 2019).
“Also recorded” adds a separate entry of the source.

What was measured:
[1] = tested on: lipid peroxidation in RAW 264.7 cells; test: lipid peroxidation by BODIPY 581/591 C11 staining and FACS in RAW 264.7 cells; assay type: cell-based, murine; conditions: 5 μM, LPS/IFNγ 10 ng/mL of each, 24 h
RAW 264.7 macrophages = test: protection of RAW 264.7 macrophages from LPS-induced cytotoxicity; conditions: LPS 100 μg/mL, MTS assay
NF-κB = test: RAW-Blue NF-κB reporter gene assay; assay type: cell-based, murine; conditions: RAW-Blue macrophages, 0.2, 1 and 5 μM, LPS/IFNγ 10 ng/mL of each
iNOS = assay type: cell-based, murine; conditions: 5 μM, RAW 264.7 macrophages activated by LPS and IFNγ (10 ng/mL of each)
NO production = test: nitric oxide; assay type: cell-based, murine; conditions: RAW 264.7 cells, 0.2, 1 and 5 μM, LPS/IFNγ 10 ng/mL of each
15-LOX-1 = biological target: T1, 15-LOX-1 (Homo sapiens, UniProt P16050); assay type: biochemical
T1 sequence (P16050 1-662): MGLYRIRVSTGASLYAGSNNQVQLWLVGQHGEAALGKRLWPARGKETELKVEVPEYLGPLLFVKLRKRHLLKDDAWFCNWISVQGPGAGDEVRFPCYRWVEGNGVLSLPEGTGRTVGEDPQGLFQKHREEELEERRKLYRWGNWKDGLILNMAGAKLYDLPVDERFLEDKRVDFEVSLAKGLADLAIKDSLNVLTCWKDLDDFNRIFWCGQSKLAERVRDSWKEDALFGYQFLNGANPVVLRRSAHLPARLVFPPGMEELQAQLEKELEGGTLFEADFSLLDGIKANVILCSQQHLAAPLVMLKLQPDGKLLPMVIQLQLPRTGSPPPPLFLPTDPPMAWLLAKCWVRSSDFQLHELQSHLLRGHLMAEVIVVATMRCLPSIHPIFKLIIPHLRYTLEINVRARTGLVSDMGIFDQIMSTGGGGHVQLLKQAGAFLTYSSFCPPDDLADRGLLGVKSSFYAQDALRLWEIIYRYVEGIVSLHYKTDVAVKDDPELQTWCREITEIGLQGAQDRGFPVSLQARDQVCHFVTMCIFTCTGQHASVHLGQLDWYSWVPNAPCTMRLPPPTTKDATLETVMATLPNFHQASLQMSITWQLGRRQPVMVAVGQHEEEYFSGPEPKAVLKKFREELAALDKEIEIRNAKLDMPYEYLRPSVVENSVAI

c1ccc2c(c1)SCc1c-2[nH]c2ccccc12 [PD-146176, reference compound]
effect on the boost of lipid peroxides [1]: significantly attenuated

CCOC(=O)c1[nH]c2cc(Cl)ccc2c1C(=O)C[C@@H](C)CCCC(C)C [Eleftheriadis-14d]
effect on viability of LPS-treated RAW 264.7 macrophages, in words (RAW 264.7 macrophages): comparably improved the viability

CC(c1cc2ccccc2s1)N(O)C(N)=O (stereo not drawn) [Zileuton]
effect on viability of LPS-treated RAW 264.7 macrophages, in words (RAW 264.7 macrophages): comparably improved the viability

CCOC(=O)c1[nH]c2cc(Cl)ccc2c1/C=C/C(=O)NCc1ccccc1OC [Compound 9c, Ethyl (E)-6-Chloro-3-(3-((2-methoxybenzyl)amino)-3-oxoprop-1-en-1-yl)-1H-indole-2-carboxylate]
inhibition of NF-κB transcriptional activation (NF-κB): significant but not complete inhibition | downregulation of iNOS gene expression (iNOS): approximately 50% | inhibition of NO production (total nitrate/nitrite) (NO production): dose-dependent inhibition | effect on the boost of lipid peroxides ([1]; listed as 9c (i472)): significantly attenuated; also recorded: clear reduction back to baseline levels | effect on viability of LPS-treated RAW 264.7 macrophages, in words (RAW 264.7 macrophages): stronger, dose-dependent effects

CCCNC(=O)c1[nH]c2cc(Cl)ccc2c1CN(C)C [Compound 13, 6-Chloro-3-((dimethylamino)methyl)-N-propyl-1H-indole-2-carboxamide]
potency against 15-LOX-1, in words (15-LOX-1): complete loss in potency
